Source: publication PMC10615883 (Angewandte Chemie (International ed. in English), 2023)

Biological target: Aβ40 aggregates (amyloid beta) (Homo sapiens, UniProt P05067)
Experiment: fluorescence titration with Aβ aggregates
Type: binding

Aβ40 aggregates (amyloid beta), sequence (P05067 672-711 limits assumed): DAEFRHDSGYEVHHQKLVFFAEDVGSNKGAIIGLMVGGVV

Kd: 2890 ± 430 nM
Substance: CRANAD-147
